Test results published in ChEMBL document CHEMBL1201862, “PubChem BioAssay data set” (2004).
The source made the active and inactive calls.

Columns and labels:
[1] = system: Streptococcus sp. 'group A'; assay: Streptococcus pyogenes SK(-)GAS viability under kanamycin – luminescence, BacTiterGlo, confirmation, counter-screen for streptokinase expression inhibitor project, dose response (AID 1900); assay type: functional, organism-based
[2] = Luminescence Cell-Based Dose Response HTS to Identify Inhibitors of 5'UTR Stem-Loop Driven Prion Protein mRNA Translation in H4 Neuroglioblastoma Cells. [Related pubchem assays: 1827 (Project Summary), 1813 (Primary HTS)]; assay type: functional
[3] = molecular target: T1, Streptokinase A (Streptococcus pyogenes serotype M1, UniProt P10520); assay: viability-normalized secreted streptokinase activity reduction – plasminogen activation absorbance, OD405, dose response (AID 1914); assay type: functional, Streptococcus pyogenes M1 GAS;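 also: secreted streptokinase activity via plasminogen activation per viability signal from cell pellet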
T1 sequence (P10520 whole entry): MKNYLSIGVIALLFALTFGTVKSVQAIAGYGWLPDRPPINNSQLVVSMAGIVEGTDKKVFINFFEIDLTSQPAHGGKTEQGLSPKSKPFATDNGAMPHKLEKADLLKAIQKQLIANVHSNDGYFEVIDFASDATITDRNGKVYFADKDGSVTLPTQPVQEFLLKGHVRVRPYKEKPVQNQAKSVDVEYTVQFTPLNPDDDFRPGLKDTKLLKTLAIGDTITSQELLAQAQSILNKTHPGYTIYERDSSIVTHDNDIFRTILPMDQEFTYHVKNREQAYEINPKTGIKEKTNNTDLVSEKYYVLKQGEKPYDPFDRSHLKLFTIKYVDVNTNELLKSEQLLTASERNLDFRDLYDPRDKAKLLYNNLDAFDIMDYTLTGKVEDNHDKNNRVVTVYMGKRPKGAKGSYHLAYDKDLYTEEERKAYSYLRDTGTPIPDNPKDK

[4] = luciferase reporter signal suppression in cells – H4 neuroglioma cells, luminescence, dose response (AID 1990); assay type: functional, cell-based
[5] = viability loss in Vero cells – cytotoxicity control for Vif-APOBEC3G degradation inhibitor project, dose response (AID 1117358); assay type: functional; conditions: Vero
[6] = system: Streptococcus; assay: GAS UMAA2166 growth inhibition – luminescence, BacTiterGlo, counter-screen for streptokinase expression inhibitor project, dose response (AID 1915); assay type: functional, organism-based;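 also: potency for reduction of bacterial viability or growth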
[7] = alpha-synuclein stem-loop luciferase translation blockers – H4 neuroglioma cells, luminescence, confirmation (AID 1988); assay type: functional, cell-based
[8] = reduction of Shn3 3'UTR-driven luciferase in osteoblasts – cell-based, Clone20 osteoblasts, firefly luciferase, cherry-picked, dose response (AID 624132); assay type: functional;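 also: firefly luciferase luminescence from reporter carrying the Shn3 3'UTR in osteoblasts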
[9] = system: INS1; assay: INS-1E survival protection against cytokine death – cell-based, luminescence, retest, dose response (AID 449756); assay type: functional; conditions: Rattus norvegicus;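 also: cell death triggered by IL-1 beta plus TNF-alpha plus IFN-gamma mixture; protective hits raise ATP signal compared with cytokine alone wells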
[10] = molecular target: Galanin receptor type 2 (Homo sapiens, UniProt O43603); assay: Dose Response cell-based high-throughput screening assay to identify agonists of galanin receptor 2 (GALR2). [Related pubchem assays: 864 ]; assay type: functional
Chain of Galanin receptor type 2 (O43603 whole entry): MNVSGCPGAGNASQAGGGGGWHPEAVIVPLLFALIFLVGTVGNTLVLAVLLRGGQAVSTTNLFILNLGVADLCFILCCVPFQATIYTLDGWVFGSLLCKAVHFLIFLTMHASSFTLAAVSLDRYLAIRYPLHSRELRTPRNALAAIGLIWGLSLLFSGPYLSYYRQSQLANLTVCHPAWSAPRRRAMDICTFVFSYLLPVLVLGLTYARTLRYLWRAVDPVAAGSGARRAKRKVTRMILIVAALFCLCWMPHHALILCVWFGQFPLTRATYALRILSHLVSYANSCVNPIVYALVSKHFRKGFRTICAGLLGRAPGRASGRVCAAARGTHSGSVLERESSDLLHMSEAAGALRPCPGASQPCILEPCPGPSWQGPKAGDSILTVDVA

[11] = Trypanosoma cruzi growth suppression in host cells – NIH3T3 host cells, beta-gal luminescence, confirmation (AID 2044); assay type: functional, cell-based;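 also: intracellular parasites grown in NIH/3T3 mouse fibroblasts as host cells; luminescent beta-galactosidase reporter signal from transgenic T. cruzi replicating inside host cells; inhibitors lower the luminescence signal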
[12] = molecular target: T2, Probable nicotinate-nucleotide adenylyltransferase (Staphylococcus aureus (strain N315), UniProt P65502); assay type: functional, Staphylococcus aureus subsp. aureus N315; conditions: read-out: IC50_Mean;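 as to IC50 Mean: confirmatory dose-response retesting of NadD inhibitor hits first found in an ultra-high-throughput screen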
T2 sequence (P65502 whole entry): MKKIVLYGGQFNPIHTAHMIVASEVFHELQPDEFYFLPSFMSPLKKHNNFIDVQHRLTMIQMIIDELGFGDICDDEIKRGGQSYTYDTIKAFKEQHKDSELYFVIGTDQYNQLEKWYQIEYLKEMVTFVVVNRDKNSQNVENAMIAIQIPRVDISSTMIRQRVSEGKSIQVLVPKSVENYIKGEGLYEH

[13] = NIH3T3 cell viability loss – ATP luminescence, mouse fibroblasts, counter-screen, dose response (AID 2010); assay type: functional, cell-based;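 also: cells exposed to compound for about 90 hours before reading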
[14] = loss of viability in HepG2 cells – cell-based, CellTiter-Glo, cherry-picked, cytotoxicity control for Shn3 inhibitor project, dose response (AID 624134); assay type: functional
[15] = HIV-1 Vif–A3G interaction blockers – biochemical, TR-FRET, GST-Vif 1-94, biotin-A3G peptide, dose response retest, primary screen (AID 1117319); assay type: functional;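 also: TR-FRET signal of purified GST-Vif binding a biotinylated A3G peptide; inhibitors lower the FRET signal by blocking Vif and A3G binding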
[16] = molecular target: T2, Probable nicotinate-nucleotide adenylyltransferase; assay type: functional, Staphylococcus aureus subsp. aureus N315
[17] = non-specific 3'UTR reporter inhibition in Clone20-Shn3RL – cell-based, Renilla luciferase, cherry-picked, counter-screen for Shn3 inhibitor project, dose response (AID 624133); assay type: functional
[18] = viability loss in THP-1 monocytes – THP-1 cells, cytotoxicity control for Vif-APOBEC3G degradation inhibitor project, dose response (AID 1117359); assay type: functional; conditions: THP-1
[19] = molecular target: T3, Short transient receptor potential channel 4 (Mus musculus, UniProt Q9QUQ5); assay: block of DAMGO-driven TRPC4 calcium entry – cell-based, HEK293 TRPC4/mu-opioid, Fluo-4 calcium, dose response (AID 434942); assay type: functional;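 also: potency of inhibitors blocking the TRPC4 calcium response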
T3 sequence (Q9QUQ5 whole entry): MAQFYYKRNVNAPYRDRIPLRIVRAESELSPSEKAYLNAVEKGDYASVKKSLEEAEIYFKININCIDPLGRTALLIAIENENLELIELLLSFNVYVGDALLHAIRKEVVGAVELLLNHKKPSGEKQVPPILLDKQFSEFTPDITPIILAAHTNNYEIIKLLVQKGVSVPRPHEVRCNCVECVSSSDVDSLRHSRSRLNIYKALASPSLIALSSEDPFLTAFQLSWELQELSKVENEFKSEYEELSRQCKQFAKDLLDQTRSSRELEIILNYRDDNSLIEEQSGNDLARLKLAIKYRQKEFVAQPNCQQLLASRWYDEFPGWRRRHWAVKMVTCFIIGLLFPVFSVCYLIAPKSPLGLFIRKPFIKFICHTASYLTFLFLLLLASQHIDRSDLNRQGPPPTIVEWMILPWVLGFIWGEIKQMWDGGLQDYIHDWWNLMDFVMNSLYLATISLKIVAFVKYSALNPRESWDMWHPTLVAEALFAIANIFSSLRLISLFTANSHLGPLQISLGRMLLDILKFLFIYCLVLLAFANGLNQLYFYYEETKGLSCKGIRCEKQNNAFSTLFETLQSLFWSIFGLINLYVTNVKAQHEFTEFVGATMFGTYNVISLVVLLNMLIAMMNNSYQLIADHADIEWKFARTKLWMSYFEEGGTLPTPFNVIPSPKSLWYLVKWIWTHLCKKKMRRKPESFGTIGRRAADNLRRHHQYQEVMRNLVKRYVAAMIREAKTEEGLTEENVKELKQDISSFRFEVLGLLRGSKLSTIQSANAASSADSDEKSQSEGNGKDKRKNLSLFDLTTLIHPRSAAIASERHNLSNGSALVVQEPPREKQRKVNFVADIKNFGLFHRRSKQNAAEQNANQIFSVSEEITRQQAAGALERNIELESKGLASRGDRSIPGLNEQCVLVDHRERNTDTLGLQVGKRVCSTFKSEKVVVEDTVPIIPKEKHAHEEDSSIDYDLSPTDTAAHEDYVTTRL

[20] = molecular target: 14-3-3 protein gamma (Homo sapiens, UniProt P61981); assay: modulators of 14-3-3 gamma client binding – dose response (AID 711); assay type: functional
Chain of 14-3-3 protein gamma (P61981 whole entry): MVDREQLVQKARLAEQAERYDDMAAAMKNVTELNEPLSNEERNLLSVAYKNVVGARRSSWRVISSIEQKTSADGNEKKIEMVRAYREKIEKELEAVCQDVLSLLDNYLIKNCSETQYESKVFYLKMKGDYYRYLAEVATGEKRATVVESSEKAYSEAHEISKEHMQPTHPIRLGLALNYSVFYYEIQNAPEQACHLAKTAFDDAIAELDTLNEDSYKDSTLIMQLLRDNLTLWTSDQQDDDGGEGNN

| SMILES | EC50 [1] | EC50 [2] | EC50 [3] | EC50 [4] | CC50 [5] | EC50 [6] | EC50 [7] | AC50 [8] | AC50 [9] | EC50 [10] | EC50 [11] | IC50 [12] | EC50 [13] | AC50 [14] | IC50 [15] | IC50 [16] | AC50 [17] | CC50 [18] | EC50 [19] | IC50 [20] |
| --- | --- | --- | --- | --- | --- | --- | --- | --- | --- | --- | --- | --- | --- | --- | --- | --- | --- | --- | --- | --- |
| CC(C)c1ccc(-c2[nH]c(N3CCCC3)nc3nnc(N)c2-3)cc1 | 103 µM (active) | > 120 µM (not active) | > 150 µM (not active) | > 120 µM (not active) | > 40 µM (active) | > 150 µM (not active) | 12.9 µM (active) |  |  |  |  |  |  |  |  |  |  |  |  |  |
| Cc1cccc2sc(NNC(=O)c3ccc(S(=O)(=O)N4CC(C)CC(C)C4)cc3)nc12 (configuration not stated) | 1.18 µM (active) |  |  |  |  | 4.98 µM (active) |  | 2.57 µM (active) | 1.73 µM (active) | > 55.7 µM (not active) | 1.22 µM (active) | 42.1 µM (active) | 7.47 µM (active) | 5.61 µM (active) | > 100 µM (active) | 8.16 µM (active) | 5.72 µM (active) | 2.27 µM (active) |  |  |
| COc1ccc(Nc2cc(C)nc3ccccc23)cc1 |  |  |  |  |  |  |  |  |  |  |  |  |  |  |  |  |  |  | 2.99 µM (active) | > 50 µM (not active) |
